Data on one molecule can be found in patent publication US20240183865A1, “METHOD FOR MEASURING AGGREGATING PROTEINS, METHOD FOR VISUALIZING AGGREGATION, AND KIT USED THEREFOR” (KANEKA CORPORATION, priority 2021, published 2024).

The assay addresses T1, Aβ42 (Homo sapiens, UniProt P05067).
T1 construct: the amyloid β42 protein (Aβ42)
Kind of assay: MSHTS quantification of aggregated Aβ with QD-Aβ40 in filtrate collected with Blocking 12. It counts as biochemical. Particulars: Aβ42 and QD-Aβ40, 37° C. for 24 hours, SD value, read-out: RA concentration at which Aβ accounting for approximately 50% of the whole would not be aggregated. Here is the method:
Accordingly, whether or not it is possible to visualize aggregation of the amyloid β protein in such filtrate was examined. The quantum-dot-modified amyloid 40 protein (QD-Aβ40) was dissolved in the filtrate collected in Example 3, the solution was added to and mixed with the 1 mM Aβ42 solution, and the filtrate collected in Example 3 comprising 50 μM Aβ42 and 50 nM QD-Aβ40 was prepared. The 150 mM rosmarinic acid (RA) solution was diluted with the filtrate collected in Example 3 to five levels of concentration (3,000 μM, 600 μM, 120 μM, 24 μM, and 4.8 μM). Aβ42 and QD-A$40 were diluted with the filtrate collected in Example 3 to prepare a mixture of 50 μM Aβ42 and 50 nM QD-Aβ40. […] As a result, none of the solutions were sufficient in terms of sensitivity of SD values to perform quantitative analysis of aggregated Aβ (FIG. 4).
With the use of Blocking 12, accordingly, a 50 μM Aβ42 solution was prepared from the filtrate collected in the same manner as in Example 2, and QD-Aβ40 was diluted in the collected filtrate to adjust the concentration of QD-Aβ40 to 50 nM. […] These reaction solutions were incubated at 37° C. for 24 hours, aggregated Aβ was observed under a fluorescent microscope, and aggregated AD was quantified. […] It was found necessary that the sensitivity of the SD value be 60% or higher relative to that of PBS designated as 100% for quantification of aggregated AD.

Structures are written as SMILES.

T1 sequence (P05067 672-713 limits assumed): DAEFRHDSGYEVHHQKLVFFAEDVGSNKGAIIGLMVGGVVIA

Regarding `O=C(/C=C/c1ccc(O)c(O)c1)O[C@H](Cc1ccc(O)c(O)c1)C(=O)O` [RA, rosmarinic acid], the EC50 was at most 46 µM.
